Reference: US6730659B2, “Antimicrobial peptides and methods of use thereof” (The Board of Regents of the University of Oklahoma, priority 1999, dated 2004)
“Also recorded” adds a separate entry of the source. Read-outs that look alike come from different tables or passages of the source. Positions of bridges follow the written chain, without caps; N, C: chain ends. Residues, ends and D or L forms follow the SMILES beside them. No end group written: not given here. *: point of attachment. Acm = CC(=O)NC*

Experiments:
[1] = U.S. Pat. Nos. 5,607,916 and 5,458,874; cited from earlier work
S. typhimurium LT2 = test: survival of mice inoculated with live Salmonella typhimurium LT2; assay type: in vivo, mice (female, Balb/c); conditions: for rescue from lethal infection in words: oral and intraperitoneal routes; for survival rate: 100 μg
Description: Mice (female, Balb/c, 6-8 weeks) were administered a dose of live S. typhimurium LT2 (8×10^8/mouse) via the oral route. Without treatment, this dose of live organisms led to the death of all animals between day 3 and 4 (i.e. LD100 at day 3 or 4). Following challenge with Salmonella, peptide 20-44 (0-150 μg/mouse) was administered via the intravenous; oral, and intraperitoneal routes. […] At day 6 post infection, 100% of animals given a dose of 125 μg of peptide 20-44 intravenously survived. 80% of mice given 50, 100 and 150 μg of peptide survived through to day 5. Data shown in FIG. 10 strongly indicate that peptide 20-44 may also be given via the oral route since 80% survival rates were obtained with 100 μg of peptide. This is evidence that the peptide is not destroyed by the acid environment and enzymes of the stomach and indicates an alternative route of administration to the intravenous route discussed in FIG. 9. The third route of administration of peptide 20-44 was the intraperitoneal route. This is often the method of choice in a veterinary situation.

[2] = cited from earlier work
Staphylococcus aureus = conditions: cited from earlier work
Salmonella typhimurium = conditions: cited from earlier work
Pseudomonas aeruginosa = conditions: cited from earlier work
[3] = LPS binding in the in vitro limulus amebocyte lysate (LAL) assay; conditions: FIGS. 6-7
Description: We tested the ability of the peptide analogs of the present invention to bind LPS in the in vitro limulus amebocyte lysate (LAL) assay and compared them with the parent peptide, 20-44. […] Similarly, peptide 20-44ser42 was also capable of neutralizing the effect of monophosphoryl lipid A at concentrations greater than 500 μg/ml (FIG. 7).

Escherichia coli = conditions: cited from earlier work
S. typhimurium SH9178 = test: in vitro bactericidal activity, S. typhimurium SH9178; assay type: cell-based, Salmonella typhimurium
Description: (§1) Methods used herein are those previously described in U.S. Pat. Nos. 5,607,916; 5,627,262; and 5,650,392.
(§2) Peptides 20-44, 20-44ser26 and 20-44ser42, were assayed for bactericidal activity using S. typhimurium SH9178 as the test organism. […] Peptide 20-44ser42 killed 97.8% of bacteria at 75 μM, and peptide 20-44ser26 killed 99.6% of bacteria at 75 μM. Importantly, at concentrations of only 12.5 μM, peptide 20-44ser26 killed 70.4% of organisms and peptide 20-44ser42 killed 66.6% of bacteria. We tested these peptides with the smooth, more virulent LT2 strain of S. typhimurium, (FIG. 3). […] Indeed, the two serine analogs, 20-44ser26 and 20-44ser42 were able to kill 73% and 65% of bacteria at 12.5 μM, the lowest concentration of peptide tested. These levels of mortality were very much greater than those obtained using peptide 20-44. Two other organisms, Staphylococcus aureus ATCC strain 25923 and Enterococcus faecalis (a clinical isolate), both of which are gram-positive organisms, were also tested against 20-44ser26 and 20-44ser42.

[4] = intravenous infusion 3.0 mg/kg with E. coli LPS 250 μg/kg over 30 min; cited from earlier work
Enterococcus faecalis = conditions: cited from earlier work
[5] = test system: LT2 strain of S. typhimurium; assay type: cell-based; conditions: 12.5 μM, lowest concentration tested, FIG. 3
Description: as §1, §2

[6] = assay type: physicochemical
Text: In addition to the Increased potency of peptide 20-44ser42 and 20-44ser26, these two peptides have technical advantages over the parent peptide 20-44. The two new analogs are easier to synthesize and purify because the internal disulfide bonding between the two cysteine residues can no longer occur.

[7] = 75 μM (200 μg/ml), highest concentration tested, FIG. 2

20-44ACM: sequence of 20-44 with both cysteines permanently protected with an ACM (boc-cys-acetamidomethyl) side group; control peptide (NQGRHFC(Acm)GGALIHARFVMTAASC(Acm)FQ; listed as Homo Sapiens) [Peptide 20-44ACM]
antibiotic / antimicrobial activity in words [1]: ineffective antibiotics
rescue from lethal infection in words (S. typhimurium LT2; intravenous): succumbed to infection very rapidly; also recorded: no activity

20-44ser26/42: homologous to peptide 20-44, serines substituted for cysteines at positions 26 and 42 (NQGRHFSGGALIHARFVMTAASSFQ; listed as Homo Sapiens)
antibiotic / antimicrobial activity in words [1]: ineffective antibiotics

CC[C@H](C)[C@@H]1NC(=O)[C@H](CC(C)C)NC(=O)[C@H](C)NC(=O)CNC(=O)CNC(=O)[C@@H](NC(=O)[C@H](Cc2ccccc2)NC(=O)[C@H](Cc2c[nH]cn2)NC(=O)[C@H](CCCNC(=N)N)NC(=O)CNC(=O)[C@H](CCC(N)=O)NC(=O)[C@@H](N)CC(N)=O)CSSC[C@@H](C(=O)N[C@@H](Cc2ccccc2)C(=O)N[C@@H](CCC(N)=O)C(=O)O)NC(=O)[C@H](CO)NC(=O)[C@H](C)NC(=O)[C@H](C)NC(=O)[C@H]([C@@H](C)O)NC(=O)[C@H](CCSC)NC(=O)[C@H](C(C)C)NC(=O)[C@H](Cc2ccccc2)NC(=O)[C@H](CCCNC(=N)N)NC(=O)[C@H](C)NC(=O)[C@H](Cc2c[nH]cn2)NC1=O [Peptide 20-44] (H-NQGRHFCGGALIHARFVMTAASCFQ-OH; disulfide 7-23; N-terminus and C-terminus assumed)
7-day survival rate ([2]; 0.2 mg/kg intravenously after lethal dose of LPS): 30%
7-day survival rate ([2]; 1.0 mg/kg intravenously after lethal dose of LPS): 50%
7-day survival rate ([2]; 5.0 mg/kg intravenously after lethal dose of LPS): 80%
endotoxin-induced increase in circulating TNFα ([2]; 5.0 mg/kg, sensitized rats): significantly inhibited
activity in words (Staphylococcus aureus): active
in vitro bactericidal activity in words (Salmonella typhimurium): strong in vitro bactericidal activity
in vitro bactericidal activity in words (Pseudomonas aeruginosa): strong in vitro bactericidal activity
binding of LPS / monophosphoryl lipid A in words [3]: bound LPS
in vitro bactericidal activity in words (Escherichia coli): strong in vitro bactericidal activity
bactericidal activity in words (S. typhimurium SH9178; FIG. 2): significant antibiotic activity
effect on LPS-induced circulatory shock in words [4]: prevented LPS-induced hyperdynamic and hypodynamic circulatory shock
mice survived (S. typhimurium LT2; 50, 100 and 150 μg (intravenous by context, FIG. 9), through to day 5): 80%
survival rate (S. typhimurium LT2; intraperitoneal, day 5 post infection, FIG. 11): 80%
survival rate (S. typhimurium LT2; intraperitoneal, day 6 post infection, FIG. 11): 60%
animals survived (S. typhimurium LT2; intravenous, 125 μg, day 6 post infection, FIG. 9): 100%
rescue from lethal infection in words (S. typhimurium LT2; intravenous): can rescue animals from lethal infection
survival rate (S. typhimurium LT2; oral, FIG. 10): 80%
activity in words (Enterococcus faecalis): active

NQGRHFCGGALIHARFVMTAASSFQ [Peptide 20-44ser42]
bacteria killed [5]: 65%
solubility compared with the 20-44 peptide [6]: greater than the 20-44 peptide
bacteria killed (S. typhimurium SH9178; 12.5 μM): 66.6%
bacteria killed (S. typhimurium SH9178; [7]): 97.8%

NQGRHFSGGALIHARFVMTAASCFQ [Peptide 20-44ser26]
bacteria killed [5]: 73%
solubility compared with the 20-44 peptide [6]: greater than the 20-44 peptide
bacteria killed (S. typhimurium SH9178; 12.5 μM): 70.4%
bacteria killed (S. typhimurium SH9178; [7]): 99.6%
